Here are results for three compounds from article PMC4224572, “Peptidomimetic inhibitors of N-myristoyltransferase from human malaria and leishmaniasis parasites” (Organic & Biomolecular Chemistry, 2014).

This assay concerns Leishmania NMT. The assay is described as follows: Substrate characteristics in Leishmania NMT. In kind it is biochemical. The settings on record: for Km: read-out: KM as substrate; for substrate activity: compound 10 tested up to 40 μM. The protocol: Unexpectedly, the electron maps indicated a mixture of ligand structures such that ∼20% of the electron density represents a N-myristoylated 10 product complex with the CoA by-product in LmNMT (Fig. 2D). This is the only structural evidence for a product complex in any N-myristoyltransferase, and captures and supports the proposed mechanism of action of NMT just prior to regeneration of the active enzyme. Kinetic experiments were performed to study 10 both as a potential substrate and as an NMT inhibitor. […] The N-myristoylation of 10 observed above therefore presumably occurs within the crystal where all reagents are present at high effective concentrations, and turnover is blocked by limited egress of products.
To probe the degree to which 10 acts as a true peptidomimetic, we investigated the potential to switch from inhibitor to a peptidomimetic substrate. […] In native NMT substrates, N-terminal Gly is preferred to the exclusion of all other residues, with relatively non-sterically demanding residues such as alanine. […]
[Substrate] (µM) [S b[Substrate] (µM) tt ]
Hs pp60src(2-9) Compound 10 Compound 27 Compound 28
Figure S4: Substrate characteristics of H. sapiens p60src(2-16), compound 10 and modified
inhibitors 27 and 28 in Leishmania NMT.

The term Km denotes the concentration of substrate that gives half-maximal velocity. As to `NCCCC[C@H](NC(=O)[C@H](CO)NC(=O)CCCCCCNC(=O)CN)C(=O)NCCC1CCCCC1` [Compound 27], the substrate activity entry is reported as “substrate”. Under “Leishmania NMT”, the Vmax as substrate was 6596.4 ± 281.4 RFU.s-1 and the Michaelis constant (Km) worked out at 1.3 µM.
Consider `C[C@H](N)C(=O)NCCCCCCC(=O)N[C@@H](CO)C(=O)N[C@@H](CCCCN)C(=O)NCCC1CCCCC1` [Compound 28], for which the substrate activity result is “no detectable substrate activity”. Besides, for the setting “Leishmania NMT”, the KM as substrate entry is on record as “Not measurable” and the Vmax as substrate entry is “Not measurable”.
For the compound GSNKSKPK-NH2 [reference compound], under “Leishmania NMT”, the Vmax as substrate is 113616.7 ± 3962.0 RFU.s-1 and the Km was 22.6 µM.
